# Experimental data published in publication PMC8589634 (The Journal of Prevention of Alzheimer's Disease, 2021).
# B1: AL001: human monoclonal IgG1 antibody that blocks and downregulates Sortilin (antibody, chains of the INN, looked up, V domains shown)
# VH: QVQLQESGPGLVKPSETLSLTCAVSGYSISSGYYWGWIRQPPGKGLEWIGTIYHSGSTYYNPSLKSRVTISVDTSKNQFSLKLSSVTAADTAVYYCARQGSIKQGYYGMDVWGQGTTVTVSS
# VL: DIVMTQSPLSLPVTPGEPASISCRSSQSLLRSTGYNYLDWYLQKPGQSPQLLIYLGSNRASGVPDRFSGSGSGTDFTLKISRAEAEDVGVYYCMQQQEAPLTFGGGTKVEIK
# How the values were obtained:
# [1] = system: patients with mild or mild/moderate AD; test: LMTM Phase 3 exposure groups against historical placebo meta-analysis; type: in vivo, human; conditions: 8mg/day
# healthy volunteers [2] = system: healthy volunteers
# healthy volunteers [3] = test: Brain spectroscopy after NR supplementation; type: in vivo, human; conditions: two weeks of NR supplementation
# AD and PD patients = test: Posiphen phase 2a studies in AD and PD; type: in vivo, human
# [4] = system: patients with agitation in Alzheimer’s dementia; test: Brexpiprazole phase 3 studies, post-hoc CMAI-IPA; type: in vivo, human
# [5] = system: patients with agitation in Alzheimer’s dementia; test: Brexpiprazole phase 3 pooled CGI-S and CMAI responder analysis; type: in vivo, human
# PSEN1-AD neurons = conditions: screen of existing drug library; earlier work of the authors; cited from earlier work
# patients with MCI or PD [6] = test: Cerebral blood flow by pCASL MRI after clenbuterol; type: in vivo, human
# patients with MCI or PD [7] = test: Safety and tolerability of single doses of clenbuterol; type: in vivo, human
# [8] = system: patients with AD and agitation/aggression; test: Lit-AD randomized trial of low-dose lithium; type: in vivo, human
# [9] = system: subjects with moderate AD; test: Masupirdine phase-2 trial, NPI-12 psychosis subgroup analysis; type: in vivo, human
# [10] = system: subjects with moderate AD; test: Masupirdine phase-2 trial, NPI-12 agitation/aggression subgroup analysis; type: in vivo, human
# [11] = system: patients with PD psychosis and PD dementia; test: HARMONY trial, post hoc PD dementia subgroup; type: in vivo, human
# [12] = system: patients with mild-to-moderate AD; test: Open-label study of simufilam, interim analysis; type: in vivo, human
# AD patients = conditions: cited from earlier work
# GRN mutation carriers = conditions: repeat administration; earlier Phase 2 study; cited from earlier work
# [13] = first dose 80µg, 3 hours post-dose, n=8
# [14] = second visit, 1mg nadolol 2.5 hours before clenbuterol, n=4
# [15] = second visit, clenbuterol monotherapy, n=4
# [16] = 80µg single dose, patients affected
molecule,measurement,setting,value
"CN(C)c1ccc2c(c1)Sc1cc(N(C)C)ccc1N2.CS(=O)(=O)O.CS(=O)(=O)O [LMTM, leuco-methylthionine dihydromesylate]",decline on ADAS-cog11 over 12 months,[1]; above-threshold plasma levels,1.58±0.46 units
same,decline on ADAS-cog11 over 12 months,[1]; below-threshold exposure,4.74±0.60 units
CC(=O)Nc1nc(F)c(CN2CC[C@H](OCc3noc(C)n3)C[C@@H]2C)s1 [LY3372689],food effect on AUC,"3 mg QD, fed vs fasted",minimal effect
same,"food effect, decrease of Cmax","3 mg QD, fed vs fasted",43%
same,"food effect, increase of tmax","3 mg QD, fed vs fasted",5 h
same,exposure (AUC and Cmax) vs dose,"SAD 0.15–16 mg and MAD 1, 3, 7 mg",generally dose-proportional
same,renal clearance,single or multiple dosing,not a major contributor
same,maximum tolerated dose,healthy volunteers [2]; SAD,not achieved
same,tolerability,healthy volunteers [2]; up to the highest dose in each study,generally well tolerated
"NC(=O)c1ccc[n+]([C@@H]2O[C@H](CO)[C@@H](O)[C@H]2O)c1 [NR, Nicotinamide Riboside]",CK/ATPase activity and GSH levels,healthy volunteers [3]; N=4,Only a small difference
same,brain NAD+ and redox ratio (RR),"healthy volunteers [3]; N=4, preliminary",elevations
CN1CC[C@]2(C)c3cc(OC(=O)Nc4ccccc4)ccc3N(C)[C@H]12 [Posiphen],Aβ42/40 ratio,AD and PD patients; AD patients,improved
same,axonal health as measured by NfL,AD and PD patients; AD patients,improved axonal health
same,"sAPPα, sAPPβ, Tau, p-Tau",AD and PD patients; AD patients,reduced
same,ADAS-Cog 11,"AD and PD patients; AD patients, 80 mg QD for 25 +/− 2 days, vs baseline",statistically significant improvements
same,WAIS coding,"AD and PD patients; AD patients, 80 mg QD, vs baseline",statistically significant improvements
same,"UPDRS, all 4 parts",AD and PD patients; PD patients,strong trends
same,WAIS coding test,AD and PD patients; PD patients,statistically significant improvements
same,inflammation,"AD and PD patients; treated patients, to baseline or to placebo",statistically significantly lowered
O=c1ccc2ccc(OCCCCN3CCN(c4cccc5sccc45)CC3)cc2[nH]1 [brexpiprazole],"CMAI-IPA, adjusted mean difference vs placebo","[4]; Study 1, 2 mg/day (n=138) vs placebo (n=131), baseline to Week 12, MMRM",−2.34
same,"CMAI-IPA, adjusted mean difference vs placebo","[4]; Study 2, titrated to 2 mg/day (n=77) vs placebo (n=74), Week 12, MMRM",−2.79
same,patients with CGI-S score of 1 or 2,"[5]; 2 mg/day, week 12, 140/237",59.1%
same,patients with improvement in CMAI of at least 10 points,"[5]; 2 mg/day, week 12, 177/237",74.7%
same,patients with improvement on CGI-S of at least 1 point,"[5]; 2 mg/day, week 12, 188/237",79.3%
same,"difference vs placebo, CGI-S score of 1 or 2","[5]; week 12, p = 0.0033",13.5%
same,"difference vs placebo, CMAI improvement of at least 10 points","[5]; week 12, p = 0.0550",8.0%
same,"difference vs placebo, CGI-S improvement of at least 1 point","[5]; week 12, p=0.0048",11.4%
CC(C)C[C@H]1C(=O)N2CCC[C@H]2[C@]2(O)O[C@](NC(=O)[C@@H]3C=C4c5cccc6[nH]c(Br)c(c56)C[C@H]4N(C)C3)(C(C)C)C(=O)N12 [bromocriptine],modification of Aβ production,PSEN1-AD neurons,most potent modifier of Aβ production
CC(C)(C)NCC(O)c1cc(Cl)c(N)c(Cl)c1 (centres unmarked) [clenbuterol],"increase in CBF, amygdala",patients with MCI or PD [6]; [13],14.3%
same,"increase in CBF, hippocampus",patients with MCI or PD [6]; [13],20.3%
same,"increase in CBF, thalamus",patients with MCI or PD [6]; [13],13.1%
same,"Mean Relative Difference in perfusion, hippocampus",patients with MCI or PD [6]; [14],13.7±5.9%
same,"Mean Relative Difference in perfusion, thalamus",patients with MCI or PD [6]; [14],16.2±5.2%
same,"Mean Relative Difference in perfusion, amygdala",patients with MCI or PD [6]; [15],8.1±11.5%
same,"Mean Relative Difference in perfusion, hippocampus",patients with MCI or PD [6]; [15],18.6±15.1%
same,"Mean Relative Difference in perfusion, thalamus",patients with MCI or PD [6]; [15],21.0±10.8%
same,"increase in heart rate, mean [SD]",patients with MCI or PD [7]; 80µg single dose,12.9 [8.2] bpm
same,palpitations,patients with MCI or PD [7]; [16],1/8
same,tremor,patients with MCI or PD [7]; [16],4/8
same,safety and tolerability,patients with MCI or PD [7]; single doses of 80µg,safe and well tolerated
"O=C([O-])[O-].[Li+].[Li+] [lithium, lithium carbonate]",moderate or marked improvement (CGI),[8]; 12 weeks,36.8%
same,proportion of responders,"[8]; 30% reduction in NPI agitation/aggression plus psychosis and CGI much or very much improved, 12 weeks",31.6%
same,reduction vs placebo in patients with high Young Mania Rating Scale scores (β),[8]; 95%CI 1.18 to 8.94,5.06
same,improvement on NPI delusions and irritability/lability,[8]; exploratory analyses,greater than placebo
same,change in NPI agitation/aggression,"[8]; lithium carbonate 150–600 mg daily, 12 weeks, linear mixed effects model",not significantly superior to placebo
same,safety outcomes,[8]; vs placebo,did not differ significantly from placebo
COc1ccc2c(c1)c(CN1CCN(C)CC1)cn2S(=O)(=O)c1ccccc1Br [masupirdine],NPI-12 psychosis score vs placebo,"[9]; 50 mg, Week 4 & 13, p<0.05, MMRM",significant reduction
same,NPI-12 psychosis score vs placebo,"[9]; 100 mg, Week 26, p<0.1",trend
same,"effect size (Cohen’s d), agitation/aggression","[10]; 50 mg, end of 26 weeks",0.66
same,NPI-12 agitation/aggression scores,"[10]; 50 & 100 mg arms, Week 13, MMRM",statistically significant (p<0.01) reduction
CC(C)(C)NCC(O)COc1cccc2c1CC(O)C(O)C2 (centres unmarked) [nadolol],peripheral cardiovascular and metabolic effects of clenbuterol,patients with MCI or PD [7]; 1mg nadolol 2.5 hours before clenbuterol,mostly eliminated
CC(C)COc1ccc(CNC(=O)N(Cc2ccc(F)cc2)C2CCN(C)CC2)cc1 [pimavanserin],sustained response at weeks 8 and 12,"[11]; 34 mg, open-label period, 36 of 49",73.5%
same,patients who met relapse criteria,"[11]; at the time the study was stopped, n=16",1
same,any TEAE,[11]; double-blind period,31.3%
same,serious TEAEs,[11]; double-blind period,No patients
same,"risk of psychosis relapse, hazard ratio vs placebo","[11]; double-blind period, Cox regression, 95% CI 0.016, 0.166",0.052
same,any TEAE,[11]; open-label period,46.9%
same,decreased appetite,[11]; open-label period,8.2%
same,fall,[11]; open-label period,6.1%
same,insomnia,[11]; open-label period,8.2%
same,serious TEAE,[11]; open-label period,10.2%
same,somnolence,[11]; open-label period,8.2%
same,urinary tract infection,[11]; open-label period,6.1%
same,weight decreased,[11]; open-label period,8.2%
same,MMSE mean change from baseline,"[11]; open-label, baseline to week 12, SE 0.66",0.3
same,ESRS-A mean change from baseline,"[11]; open-label, baseline to week 12, SE 0.74",−1.7
same,complete response (SAPS-H+D score=0),"[11]; week 12, of 38 patients evaluated",42.1%
CN1CCC2(CC1)NCC(=O)N2Cc1ccccc1 [simufilam],ADAS-Cog11 mean change from baseline to Month 12,"[12]; 100 mg twice-daily oral, first 50 subjects, open-label",−3.23 ± 6.25 points
same,safety and tolerability,[12]; 12 months,safe and well-tolerated
same,subjects with no neuropsychiatric symptoms (NPI),"[12]; 12 months, baseline 34%",over 50%
same,"ADAS-Cog11 score, mean","[12]; Month 12, Day 1 mean 16.73 ± 7.86",13.51 ± 9.20
same,subjects with improved ADAS-Cog11 scores,"[12]; baseline to Month 12, 50 subjects",68%
same,ADAS-Cog11 median change,"[12]; baseline to Month 12, first 50 subjects",−4.0 points
Sola: monoclonal antibody comparator (Expedition 1–3),"ADAS-Cog effect size, slowing",AD patients; Expedition 1+2 mild individuals,34.8%
same,"ADCS-ADL effect size, slowing",AD patients; Expedition 3,15.4%
same,"CDR-SB effect size, slowing",AD patients; Expedition 3,15.4%
B1,CSF PGRN levels,GRN mutation carriers,normalize CSF PGRN levels
